According to patent US20040058974A1, “Treating fungal infections” (SCHERING CORPORATION, priority 2002, published 2004):
“Also recorded” adds a separate entry of the source. Like-named read-outs stand apart in the source and are kept apart here.

What was measured:
[1] = Open-label 3-way crossover clinical pharmacology study: plasma posaconazole pharmacokinetics in fasted healthy subjects (observed values and one-compartment model); format: in vivo, human; conditions: for bioavailability / Tmax / Cmax / Mean Cmin (SD) 48 hours after the initial dose / Increase in bioavailability vs regimen A / Change of estimated AUC(I) relative to regimen A: fasted; for bioavailability: model estimate (SE); for AUC(0-t): read-out: Steady-state AUC(0-24 hr); for Cmax: read-out: Mean Cmax (SD)
Description: Men and women, 18 to 45 years of age were recruited for the clinical pharmacology study. Subjects were required to be of normal body weight (within 15% of ideal body weight) and generally in good health. Inclusion criteria included normal electrocardiogram (ECG) and laboratory test results, along with negative drug and pregnancy screens; nonlactating women of childbearing potential were required to use a barrier method of contraception during the study. Exclusion criteria included substance abuse or significant food or drug allergy, donation of blood or use of an investigational drug during the previous 90 days, use of any prescription or over-the-counter drugs other than acetaminophen in the previous 2 weeks, or use of alcohol during the previous 48 hours. Also excluded were subjects with a positive HIV, hepatitis B, or hepatitis C test, as were subjects with is a clinically significant systemic infection during the previous 4 weeks. Subjects who smoked ≧10 cigarettes daily were also excluded. This was an open-label, 3-way crossover study. Subjects who met the entry criteria were confined to the study center at least 12 hours prior to dosing and 48 hours after each dosing regimen. Subjects were discharged from the study site for a 1-week washout period between each arm of the study. Following an overnight fast, each subject received posaconazole as an oral suspension (40 mg/mL), using one of 3 dosing regimens: a single dose of 800 mg (regimen A); 2 doses of 400 mg given 12 hours apart (regimen B); or 4 doses of 200 mg given 6 hours apart (regimen C). Subjects were randomly assigned using a computer-generated random code to 1 of 6 treatment schedules (ABC, ACB, BAC, BCA, CAB, CBA). The oral posaconazole suspension was manufactured and supplied by Schering-Plough Research Institute, Kenilworth, N.J., USA. After dosing with an oral dosing syringe, the oral cavity was inspected to ensure that the subject had swallowed the suspension. Subjects remained fasted for 24 hours after the initial dose. During the first 14 hours, water was provided ad libitum and subjects received IV 1,400 mL D5W/0.5 normal saline at approximately 100 mL/hr as a calorie and fluid source. For regimen A, B, and C, blood samples were collected in heparin-containing tubes at baseline (0 hr) and at 2, 4, 5, 6, 8, 10, 12, 16, 24, and 48 hours after the first dose. For regimen B, blood samples were additionally collected at 14, 17, 18, 20, and 22 hours after the first dose. For regimen C, additional blood samples were collected at 11, 14, 17, 18, 20, 22, 23, 26, 28, and 36 hours after the first dose. Each sample was centrifuged within 15 minutes after collection for 10 minutes at 4° C. and 1,500 g. The resultant plasma was frozen (−20° C.) until assayed. Plasma posaconazole concentrations were quantified using a validated high-performance liquid chromatographic (HPLC) assay with a lower limit of quantitation (LOQ) of 5 ng/mL and a linear range of 5.0 to 5000 ng/mL. The observed values were the maximum plasma concentration (Cmax), time of maximum plasma concentration (Tmax), and the trough plasma concentration at 48 hours after the initial dose of posaconazole (Cmin). Based on previous experience in modeling concentration-time posaconazole data and goodness of fit criteria, a one-compartment oral model with a first-order rate of absorption and first-order rate of elimination was used. The intra-subject error was assumed to be additive, defined as, where Ci,j(t) and Gi,j(t) were the measured and predicted concentrations, respectively, for the j^th subject at time t under the i^th regimen. The predicted concentrations Gi,j(t) following treatments B and C were calculated using the principle of superpositioning, with a lag time equal to the dosing interval (B: 12 hours; C: 6 hours). The error term εi,j(t) was assumed to be N(0, σ^2 ε). Differences in exposure following the three dosage regimens were explored by allowing the bioavailability fraction (F) to differ between regimens. […]

[2] = Posaconazole pharmacokinetics in bone marrow transplant (BMT) patients, 200 mg q6h for up to 25 days; format: in vivo, human
Method: The exposures in the fasted healthy volunteers were confirmed in a study of posaconazole pharmacokinetics in bone marrow transplant (BMT) patients.
Upon extrapolation of model parameters to multiple dosing, the population mean AUC(0-24 hr) value following oral administration of 200 mg of posaconazole four times a day, preferably q 6 hr was estimated to be 12.4 mcg·hr/mL, representing an average plasma concentration of 0.5 mcg/mL. These estimates, based on data from healthy fasted volunteers, are in close agreement with pharmacokinetic data obtained from a study of patients undergoing high-dose chemotherapy and a bone marrow transplant who were orally administered posaconazole 200 mg q6 h for up to 25 days. […] These studies combined with other data form the basis for posaconazole dosing regimens in the clinical efficacy trials for posaconazole.

[3] = given with food, rising single dose; cited from earlier work
[4] = system: Candida species (including albicans, glabrata, and tropicalis), as well as other opportunistic fungi; conditions: in vitro and in vivo studies; cited from earlier work
[5] = Safety and tolerability in the 3-way crossover study (adverse events, vital signs, ECGs, laboratory tests); format: in vivo, human
Method: Physical examinations, vital signs, ECGs, and clinical laboratory tests were conducted at screening and at the end of the study (48 hours after the final dosing regimen). Treatment-emergent adverse events were recorded throughout the study. In addition, vital signs were evaluated prior to drug administration and at 24 and 48 hours after the first dose of each regimen.

[6] = single daily dose; cited from earlier work
[7] = 200 mg four times a day, model extrapolated to multiple dosing, healthy fasted volunteers

In the case of `CC[C@@H]([C@H](C)O)n1ncn(-c2ccc(N3CCN(c4ccc(OC[C@@H]5CO[C@@](Cn6cncn6)(c6ccc(F)cc6F)C5)cc4)CC3)cc2)c1=O` [posaconazole], the “Average posaconazole plasma concentration” value ([1]; 200 mg QID oral) is reported as “greater than 500 ng/mL”, the Average plasma concentration [1, 7] is reported as 0.5 µg/mL and the “Population mean AUC(0-24 hr)” value [1, 7] is reported as 12400 ng·h/mL. For the same compound, the “Average posaconazole plasma concentration” value ([1]; 400 mg BID oral) was “greater than 300 ng/mL”, the “Absorption constant, Ka, estimate” value ([1]; Table 1, one-compartment model) was 0.197 h⁻¹ and the “Elimination constant, Ke, estimate” value ([1]; Table 1, one-compartment model) was 0.045 h⁻¹. For the same compound, the bioavailability ([1]; both sexes, human, plasma, oral, 200 mg QID vs 800 mg QD, read-out: Bioavailability fraction F3, regimen C relative to regimen A) was 320 ± 70%, the Tmax ([1]; both sexes, human, plasma, oral, 200 mg, regimen C: 200 mg every 6 h, read-out: Mean Tmax (SD) after the initial dose) was 24.2 h and the Tmax ([1]; both sexes, human, plasma, oral, 200 mg, regimen C: 200 mg every 6 h, read-out: Tmax after the final dose) was 6.2 h. For the same compound, the bioavailability ([1]; both sexes, human, plasma, oral, 400 mg BID vs 800 mg QD, read-out: Bioavailability fraction F2, regimen B relative to regimen A) was 198 ± 35%, the Tmax ([1]; both sexes, human, plasma, oral, 400 mg, regimen B: 400 mg every 12 h, read-out: Mean Tmax (SD) after the initial dose) was 16.6 h and the Tmax ([1]; both sexes, human, plasma, oral, 400 mg, regimen B: 400 mg every 12 h, read-out: Tmax after the final dose) was 4.6 h. It also gave a Tmax ([1]; both sexes, human, plasma, oral, 800 mg, regimen A: 800 mg single dose, read-out: Mean Tmax (SD) after the initial dose) of 7.8 h, a Tmax ([1]; both sexes, human, plasma, oral, 800 mg, regimen A: 800 mg single dose, read-out: Tmax after the final dose) of 7.8 h and a half-life ([1]; both sexes, human, plasma, oral, from absorption rate constant, fasting conditions, read-out: Estimated absorption half-life (converted)) of 3.5 h. It also gave a half-life ([1]; both sexes, human, plasma, oral, from elimination rate constant, read-out: Estimated terminal elimination half-life (converted)) of 15 h, an AUC ([1]; both sexes, human, plasma, oral, 200 mg QID, fasted healthy subjects, read-out: AUC (exposure)) of about 12000 ng·h/mL and a Vd/F ([1]; both sexes, human, plasma, oral, one-compartment model, read-out: V/F1 (volume of distribution) estimate) of 4580 L. It also gave an AUC(0-t) ([1]; both sexes, human, plasma, oral, regimen A 800 mg QD, model extrapolated to multiple dosing) of 3900 ng·h/mL, an AUC(0-t) ([1]; both sexes, human, plasma, oral, regimen B 400 mg BID, model extrapolated to multiple dosing) of 7700 ng·h/mL and a Cmax ([1]; both sexes, human, plasma, oral, regimen B: 400 mg every 12 h (2 doses)) of 225 ng/mL. For the same compound, the AUC(0-t) ([1]; both sexes, human, plasma, oral, regimen C 200 mg QID, model extrapolated to multiple dosing) was 12400 ng·h/mL, the Cmax ([1]; both sexes, human, plasma, oral, regimen C: 200 mg every 6 h (4 doses)) was 405 ng/mL and the Cmax ([1]; both sexes, human, plasma, regimen A: 800 mg single oral dose) was 137 ng/mL. The “Dose at which oral absorption is saturable” value ([1]; fasted subjects, suggested by concentration-time curves) was 200 mg, the Elimination rate constant ([1]; one-compartment model, all regimens) was 0.045 h⁻¹ and the Absorption rate constant ([1]; one-compartment model, fasting conditions, all regimens) was 0.197 h⁻¹. For the same compound, the “F1 (Regimen A) bioavailability fraction” value ([1]; reference, fixed equal to 1, 800 mg single dose) was 1.0, the “Estimated steady-state average concentration” value ([1]; regimen A 800 mg QD, model extrapolated to multiple dosing) was 162 ng/mL and the “Mean Cmin (SD) 48 hours after the initial dose” value (from here on “Mean Cmin (SD) 48 hours”) ([1]; regimen A: 800 mg single dose) was 50 (+/−26) ng/mL. For the same compound, the “Increase in bioavailability vs regimen A” value ([1]; regimen B 400 mg BID vs 800 mg single dose) was 98%, the “Estimated steady-state average concentration” value ([1]; regimen B 400 mg BID, model extrapolated to multiple dosing) was 320 ng/mL and the “Change of estimated AUC(I) relative to regimen A” value ([1]; regimen B 400 mg every 12 h) was “doubled”. The “Mean Cmin (SD) 48 hours” value ([1]; regimen B: 400 mg every 12 h) was 96 (+/−46) ng/mL, the “Increase in bioavailability vs regimen A” value ([1]; regimen C 200 mg QID vs 800 mg single dose) was 220% and the “Estimated steady-state average concentration” value ([1]; regimen C 200 mg QID, model extrapolated to multiple dosing) was 517 ng/mL. The “Change of estimated AUC(I) relative to regimen A” value ([1]; regimen C 200 mg every 6 h) was “tripled”, the “Mean Cmin (SD) 48 hours” value ([1]; regimen C: 200 mg every 6 h) was 189 (+/−135) ng/mL and the “Average steady-state plasma concentration” value ([2]; 200 mg q6h for up to 25 days, high-dose chemotherapy and bone marrow transplant patients) was 0.428 µg/mL. For the same compound, the AUC ([2]; human, plasma, oral, 200 mg QID, BMT patients, read-out: AUC (exposure)) was about 11000 ng·h/mL, the AUC(0-t) ([2]; human, plasma, oral, 200 mg q6h for up to 25 days, high-dose chemotherapy and bone marrow transplant patients, read-out: AUC(0-24 hr) at steady state) was 10600 ng·h/mL and the “Doses at which absorption saturated” value [3] was “above 800 mg”. For the same compound, the Antifungal activity [4] was “good activity”, the “Subjects reporting at least 1 adverse event” value ([5]; 18 subjects, all regimens) was 33% and the “Changes in vital signs, physical examinations, laboratory values, ECGs” value ([5]; all regimens) was “no clinically significant changes; also recorded: unchanged relative to baseline”. For the same compound, the “Intensity of adverse events” value ([5]; all regimens) was “mild in intensity”, the “Subjects reporting chest pain” value ([5]; regimen C) was 11% and the Subjects reporting headache ([5]; regimens A and B) was 11%. For the same compound, the Safety and tolerability ([5]; total daily dose 800 mg, regardless of dosing regimen) was “safe and well tolerated” and the “Increase in oral bioavailability with a high fat meal compared to the fasted state” value [6] was “approximately 4 fold”.
